Read-outs that look alike come from different tables or passages of the source.
Tests used:
[1] = system: Puccinia triticina; synonym: Puccinia recondita f. sp. tritici (PUCCRT); test: Wheat brown rust (PUCCRT) whole-plant fungicidal test; type: in vivo; conditions: topical; for pest or weed control at 121.5 g/ha: low volume (track spray) application, 121.5 g/H; for pest or weed control at 100 ppm: high volume application
Description: All fungicides were evaluated using the aforementioned method for their activity vs. all target diseases, unless stated otherwise. Wheat leaf blotch and brown rust activity were also evaluated using track spray applications, in which case the fungicides were formulated as EC formulations, containing 0.1% Trycol 5941 in the spray solutions. Wheat plants (variety Yuma) were grown from seed in a greenhouse in 50% mineral soil/50% soil-less Metro mix until the first leaf was fully emerged, with 7-10 seedlings per pot. These plants were inoculated with an aqueous spore suspension of Septoria tritici either prior to or after fungicide treatments. After inoculation the plants were kept in 100% relative humidity (one day in a dark dew chamber followed by two to three days in a lighted dew chamber at 20° C.) to permit spores to germinate and infect the leaf. The plants were then transferred to a greenhouse set at 20° C. for disease to develop. When disease symptoms were fully expressed on the 1st leaves of untreated plants, infection levels were assessed on a scale of 0 to 100 percent disease severity. Percent disease control was calculated using the ratio of disease severity on treated plants relative to untreated plants. Wheat plants (variety Yuma) were grown from seed in a greenhouse in 50% mineral soil/50% soil-less Metro mix until the first leaf was fully emerged, with 7-10 seedlings per pot. These plants were inoculated with an aqueous spore suspension of Puccinia triticina either prior to or after fungicide treatments. […] The plants were then transferred to a greenhouse set at 24° C. for disease to develop. Fungicide formulation, application and disease assessment followed the procedures as described in the Example A.

[2] = system: Mycosphaerella graminicola; anamorph: Septoria tritici (SEPTTR); test: Leaf blotch of wheat (SEPTTR) whole-plant fungicidal test; type: in vivo; conditions: Zymoseptoria tritici, topical; for pest or weed control at 121.5 g/ha: low volume (track spray) application, 121.5 g/H; for pest or weed control at 100 ppm: high volume application
Description: All fungicides were evaluated using the aforementioned method for their activity vs. all target diseases, unless stated otherwise. Wheat leaf blotch and brown rust activity were also evaluated using track spray applications, in which case the fungicides were formulated as EC formulations, containing 0.1% Trycol 5941 in the spray solutions. Wheat plants (variety Yuma) were grown from seed in a greenhouse in 50% mineral soil/50% soil-less Metro mix until the first leaf was fully emerged, with 7-10 seedlings per pot. These plants were inoculated with an aqueous spore suspension of Septoria tritici either prior to or after fungicide treatments. After inoculation the plants were kept in 100% relative humidity (one day in a dark dew chamber followed by two to three days in a lighted dew chamber at 20° C.) to permit spores to germinate and infect the leaf. The plants were then transferred to a greenhouse set at 20° C. for disease to develop. When disease symptoms were fully expressed on the 1st leaves of untreated plants, infection levels were assessed on a scale of 0 to 100 percent disease severity. Percent disease control was calculated using the ratio of disease severity on treated plants relative to untreated plants.

[3] = 24 h, 1 Day Protectant, read-out: Low Volume activity at 121.5 g/H PUCCRT 1DP (% disease control rating)
[4] = 72 h, 3 Day Curative, read-out: Low Volume activity at 121.5 g/H PUCCRT 3DC (% disease control rating)
[5] = 24 h, 1 Day Protectant, read-out: Low Volume activity at 121.5 g/H SEPTTR 1DP (% disease control rating)
[6] = 72 h, 3 Day Curative, read-out: Low Volume activity at 121.5 g/H SEPTTR 3DC (% disease control rating)
[7] = 24 h, 1 Day Protectant, read-out: High Volume activity at 100 ppm PUCCRT 1DP (% disease control rating)
[8] = 72 h, 3 Day Curative, read-out: High Volume activity at 100 ppm PUCCRT 3DC (% disease control rating)
[9] = 24 h, 1 Day Protectant, read-out: High Volume activity at 100 ppm SEPTTR 1DP (% disease control rating)
[10] = 72 h, 3 Day Curative, read-out: High Volume activity at 100 ppm SEPTTR 3DC (% disease control rating)

| Structure (SMILES) | pest or weed control at 121.5 g/ha [1, 3] | pest or weed control at 121.5 g/ha [1, 4] | pest or weed control at 121.5 g/ha [2, 5] | pest or weed control at 121.5 g/ha [2, 6] | pest or weed control at 100 ppm [1, 7] | pest or weed control at 100 ppm [1, 8] | pest or weed control at 100 ppm [2, 9] | pest or weed control at 100 ppm [2, 10] |
| --- | --- | --- | --- | --- | --- | --- | --- | --- |
| CCOCC(=O)OCOc1c(OC)ccnc1C(=O)N[C@H]1CCC[C@H](Cc2ccccc2)[C@@H](CCC(C)C)[C@H](C)OC1=O [Compound 51] | > 70% | < 70% | > 70% | > 70% | – | – | – | – |
| COc1ccnc(C(=O)N[C@H]2CCC[C@H](CCC(C)C)[C@@H](CCc3ccccc3)[C@H](C)OC2=O)c1OCOC(C)=O [Compound 34] | > 70% | < 70% | > 70% | > 70% | – | – | – | – |
| COc1ccnc(C(=O)N[C@H]2CCC[C@H](Cc3ccccc3)[C@@H](Cc3ccc(F)cc3)[C@H](C)OC2=O)c1OC(C)=O [Compound 62] | > 70% | < 70% | > 70% | > 70% | – | – | – | – |
| COc1ccnc(C(=O)N[C@H]2CCC[C@H](CCC(C)C)[C@@H](Cc3ccccc3)[C@H](C)OC2=O)c1OC(C)=O [Compound 4] | > 70% | < 70% | > 70% | > 70% | – | – | – | – |
| COc1ccnc(C(=O)N[C@H]2CCC[C@H](Cc3ccccc3)[C@@H](CCc3ccccc3)[C@H](C)OC2=O)c1OCOC(=O)C(C)C [Compound 17] | > 70% | < 70% | > 70% | > 70% | – | – | – | – |
| COc1ccnc(C(=O)N[C@H]2CCC[C@H](CCCc3ccccc3)[C@@H](CCc3ccccc3)[C@H](C)OC2=O)c1OC(C)=O [Compound 33] | < 70% | < 70% | > 70% | < 70% | – | – | – | – |
| COc1ccnc(C(=O)N[C@H]2CCC[C@H](Cc3ccccc3)[C@@H](CCC(C)C)[C@H](C)OC2=O)c1O [Compound 88] | – | – | – | – | > 70% | < 70% | < 70% | > 70% |
| COc1ccnc(C(=O)N[C@H]2CCC[C@H](Cc3ccc(C(F)(F)F)cc3)[C@@H](Cc3ccccc3)[C@H](C)OC2=O)c1OCOC(=O)C(C)C [Compound 27] | > 70% | < 70% | > 70% | < 70% | – | – | – | – |
| COc1ccnc(C(=O)N[C@H]2CCC[C@H](CCCc3ccccc3)[C@@H](Cc3ccc(OC(F)(F)F)cc3)[C@H](C)OC2=O)c1OC(=O)C(C)C [Compound 58, 4-methoxy-2-(((3S,7S,8R,9S)-9-methyl-2-oxo-7-(3-phenylpropyl)-8-(4-(trifluoromethoxy)benzyl)oxonan-3-yl)carbamoyl)pyridin-3-yl isobutyrate] | < 70% | < 70% | < 70% | < 70% | – | – | – | – |
| COc1ccnc(C(=O)N[C@H]2CCC[C@H](CC3CC3)[C@@H](Cc3ccccc3)[C@H](C)OC2=O)c1O [Compound 94] | > 70% | < 70% | > 70% | > 70% | – | – | – | – |
| CCOCC(=O)OCOc1c(OC)ccnc1C(=O)N[C@H]1CCC[C@H](CCC(C)C)[C@@H](CCc2ccccc2)[C@H](C)OC1=O [Compound 35] | > 70% | < 70% | > 70% | > 70% | – | – | – | – |
| COc1ccnc(C(=O)N[C@H]2CCC[C@H](Cc3ccccc3)[C@@H](Cc3ccccc3)[C@H](C)OC2=O)c1O [Compound 74] | – | – | – | – | > 70% | > 70% | > 70% | > 70% |
| COc1ccnc(C(=O)N[C@H]2CCC[C@H](Cc3ccccc3)[C@@H](c3ccccc3)[C@H](C)OC2=O)c1OCOC(C)=O [Compound 52] | > 70% | < 70% | > 70% | > 70% | – | – | – | – |
| COc1ccnc(C(=O)N[C@H]2CCC[C@H](Cc3ccc(Cl)cc3)[C@@H](C3CCCC3)[C@H](C)OC2=O)c1OCOC(=O)C(C)C [Compound 30] | < 70% | < 70% | > 70% | > 70% | – | – | – | – |
| COc1ccnc(C(=O)N[C@H]2CCC[C@H](Cc3ccccc3)[C@@H](CCC(C)C)[C@H](C)OC2=O)c1OC(C)=O [Compound 45] | > 70% | < 70% | > 70% | > 70% | – | – | – | – |
| COc1ccnc(C(=O)N[C@H]2CCC[C@H](CCC(C)C)[C@@H](CCc3ccccc3)[C@H](C)OC2=O)c1OC(C)=O [Compound 36] | > 70% | < 70% | > 70% | > 70% | – | – | – | – |
| CCOCC(=O)OCOc1c(OC)ccnc1C(=O)N[C@H]1CCC[C@H](Cc2ccc(Cl)cc2)[C@@H](Cc2ccccc2)[C@H](C)OC1=O [Compound 20] | > 70% | > 70% | > 70% | < 70% | – | – | – | – |
| COc1ccnc(C(=O)N[C@H]2CCC[C@H](Cc3ccccc3)[C@@H](C3CCCC3)[C@H](C)OC2=O)c1OCOC(C)=O [Compound 10] | > 70% | > 70% | > 70% | > 70% | – | – | – | – |
| COc1ccnc(C(=O)N[C@H]2CCC[C@H](CC3CC3)[C@@H](Cc3ccccc3)[C@H](C)OC2=O)c1OCOC(C)=O [Compound 61] | > 70% | > 70% | > 70% | > 70% | – | – | – | – |
| COc1ccnc(C(=O)N[C@H]2CCC[C@H](Cc3ccccc3)[C@@H](CCc3ccccc3)[C@H](C)OC2=O)c1OC(C)=O [Compound 18] | < 70% | < 70% | > 70% | > 70% | – | – | – | – |
| COc1ccnc(C(=O)N[C@H]2CCC[C@H](CCCc3ccccc3)[C@@H](Cc3ccccc3)[C@H](C)OC2=O)c1O [Compound 98] | – | – | – | – | > 70% | < 70% | > 70% | > 70% |
| COc1ccnc(C(=O)N[C@H]2CCC[C@H](Cc3ccc(C(F)(F)F)cc3)[C@@H](CC(C)C)[C@H](C)OC2=O)c1O [Compound 80] | – | – | – | – | > 70% | < 70% | > 70% | < 70% |
| COc1ccnc(C(=O)N[C@H]2CCC[C@H](Cc3ccc(Cl)cc3)[C@@H](Cc3ccccc3)[C@H](C)OC2=O)c1OC(C)=O [Compound 21] | > 70% | < 70% | > 70% | < 70% | – | – | – | – |
| CCCC[C@@H]1[C@@H](Cc2ccc(C(F)(F)F)cc2)CCC[C@H](NC(=O)c2nccc(OC)c2O)C(=O)O[C@H]1C [Compound 72] | – | – | – | – | > 70% | < 70% | > 70% | < 70% |
| COc1ccnc(C(=O)N[C@H]2CCC[C@H](CC3CC3)[C@@H](Cc3ccccc3)[C@H](C)OC2=O)c1OC(C)=O [Compound 60] | > 70% | > 70% | > 70% | > 70% | – | – | – | – |

From US20150322051A1, “Macrocyclic picolinamides as fungicides” (Dow AgroSciences LLC, priority 2014, published 2015)
